Experimental data taken from patent US10087215B2, “Stabilized SOS1 peptides” (DANA-FARBER CANCER INSTITUTE, INC., priority 2013, dated 2018).
Bridges are numbered along the chain shown (N, C = ends). Where no end group is shown, it is not given here. [ ]: non-standard residue; d: D form. The star is where a group is joined. guanine PNA monomer = guanine peptide-nucleic acid (PNA) monomer, attached to a lysine side chain, NCCN(CC(=O)*)C(=O)Cn1cnc2c(=O)[nH]c(N)nc21; G‑GMONO = glycine-G PNA monomer on lysine; S5 = C=CCCC[C@](C)(N)C(=O)O

How the values were obtained:
KRAS wild type [1] = target: T1, KRAS wild type (Homo sapiens, UniProt P01116); assay: Fluorescence polarization binding assay, wild-type KRAS
Method: The affinity of the various peptides is detailed in FIG. 5.
Expression was induced by 1 mM IPTG for 4 hours at 30° C. Collected bacterial pellets were resuspended in lysis buffer (20 mM Tris, 250 mM NaCl, pH 7.6), lysed by microfluidization (Microfluidics M-110L), and centrifuged at 45,000 rpm for 1 h at 4° C. (Beckman L-90K). […] Concentrated eluates were subjected to size exclusion chromatography and the corresponding monomeric peaks were collected. Protein concentration was determined by Bradford assay (BioRad) and UV absorbance measurements.
FP assays were performed as previously described. Briefly, FITC-SAH-SOS peptides (e.g. 15 nM) were incubated with the indicated serial dilution of KRAS wild-type or mutant protein in binding buffer (50 mM Tris, 100 mM NaCl, pH 8.0) until equilibrium was reached. FP was measured using a SpectraMax M5 microplate reader (Molecular Devices). Dissociation constants (KD) were calculated by nonlinear regression analysis of dose-response curves using Prism software (GraphPad). Competition FP assays were performed by using K-RAS proteins (e.g. 250 nM), FITC-SAH-SOS peptides (e.g. 15 nM), and for competition assays, a serial dilution of N-terminal acetylated SAH-SOS peptides.

KRAS and SOS1 protein = KRAS and SOS1 protein (Homo sapiens, UniProt P01116); assay: Disruption of the association between KRAS and SOS1 protein in vitro; type: biochemical
KRAS wild type [2] = target: T1, KRAS wild type; assay: mant-GTP loading of KRAS, wild type; type: biochemical
Text: (§1) The negative control SAH-SOS B2 peptide had no effect (FIG. 11A-D).

KRAS G12D = KRAS G12D (Homo sapiens, UniProt P01116, G12D); assay: mant-GTP loading of KRAS, G12D; type: biochemical; conditions: for inhibition of mant-GTP loading: KRAS G12D oncogenic variant; for inhibition of nucleotide (mant-GTP) loading of KRAS: KRAS G12D per FIG. 20 legend
Text: as §1
Fluorescent GTP analog, mant-GTP, was used to assess the GTP loading propensity of KRAS protein.

Panc 10.05 cells = conditions: confocal microscopy and lysate fluorescence scan
Method: Microscopy was performed 4 hours after dosing cells with the corresponding FITC-conjugated peptides. Complimentary assays to evaluate cell penetrance, including confocal microscopy of treated pancreatic cancer cell lines such as Panc 10.05 (FIG. 12B) and fluorescence scan of lysates from SAH-SOS peptide-treated Panc 10.05 cells (FIG. 12C), were also employed.

wildtype KRAS = wildtype KRAS (Homo sapiens, UniProt P01116); assay: Nucleotide (GTP) exchange assay with mant-GTP; type: biochemical; conditions: mant-GTP loaded KRAS, excess unlabeled GTP (10x)
Method: KRAS was loaded with equimolar mant-GTP (a fluorescent GTP analog), and excess unlabeled GTP (10×) is then added to the reaction mixture. The observed decrease in fluorescence reflects the GTP turnover activity at the KRAS active site. SAH-SOS peptides reduce the GTP turnover activity, as reflected by a shift of the curves from the no peptide negative control toward the inhibited exchange (2 mM MgCl2) positive control (FIG. 10).
Nucleotide exchange assays were performed as an association-dissociation experiment in which mant-GTP first associates with K-Ras followed by a dissociation step in which excess unlabeled GTP outcompetes mant-GTP, thus decreasing the fluorescence, as previously described^5. A kinetic readout of fluorescence, corresponding to the dissociation step, was recorded on a Tecan X1000 fluorescence spectrometer (excitation 360 nm, emission 440 nm). The rate of nucleotide exchange was determined by fitting a single exponential function to the dissociation phase readout from the experiment (Prism software, GraphPad). Reactions were performed with the indicated amounts of SAH-SOS peptides in buffer containing 25 mM Tris (pH 7.5), 50 mM NaCl, 1 mM DTT with 2 μM wildtype KRAS, 2 μM mantGTP and 200 μM unlabeled GTP. 2 mM MgCl2 was added as a […] to inhibit mantGTP release.

[3] = tested on: HeLa (cervical cancer, WT KRAS); assay: Cell viability, CellTiter-Glo, HeLa; type: cell-based; conditions: 24 hours
Method: (§2) The indicated cell lines (10^4/well) were plated overnight (96-well format) in high-glucose DMEM media supplemented with 10% FBS, antibiotics and L-Glutamine. Media was aspirated, and SAH-SOS peptides added at the indicated concentrations in serum-free DMEM. Cell viability was measured at 24 hours using the CellTiter-Glo assay (Invitrogen). The plotted data represent percent viability as normalized to untreated controls.

[4] = tested on: HCT116 (colorectal cancer, KRAS G13D); assay: Cell viability, CellTiter-Glo, HCT116; type: cell-based; conditions: HCT116, 24 hours
Method: SAH-SOSB2, which contains a staple position that interferes with the KRAS binding interface, served as a negative control for this experiment. Dose-dependent cytotoxic activity of guanine peptide-nucleic acid derivatives of SAH-SOSC2 was also observed in a series of pancreatic and lung cancer subtypes (FIG. 22).
as §2

[5] = tested on: A549 (lung adenocarcinoma, KRAS G12S); assay: Cell viability, CellTiter-Glo, A549; type: cell-based; conditions: A549, 24 hours
Method: as §2

[6] = tested on: lung, pancreatic, colon, and cervical cancer cell lines; assay: Susceptibility of a diversity of cancer cell lines; type: cell-based
Method: (§3) We tested a diversity of cancer cells lines to evaluate their susceptibility to SAH-SOS peptide treatments. […] After 4 h incubation with the indicated peptides, HeLa (FIG. 15A) or Panc 10.05 (FIG. 15B) cells were treated with […] (EGF), an upstream KRAS activator, and, lysates were prepared, subjected to electrophoresis, and western blotted with the indicated phospho-specific antibodies. Cells treated with or without EGF, in the absence of added peptide, served as positive and negative controls, respectively.
as §2

[7] = tested on: phospho-MEK1/2, phospho-ERK1/2, phospho-Akt, phospho-S6K, and phospho-myc in HeLa or Panc 10.05 cells; assay: Phospho-western blotting of downstream KRAS targets after EGF; type: cell-based; conditions: 4 h peptide incubation, then Epidermal Growth Factor (EGF)
Method: as §3
HeLa cells (10^5/well) were plated overnight (12-well format) in high-glucose DMEM media supplemented with 10% FBS, antibiotics and L-Glutamine. After 24 hours, cells were treated with the indicated amounts of SAH-SOS peptides for 4 hours in serum-free DMEM, followed by the addition of EGF (50 ng/ml) ([…], Cell Signaling) for an additional 15 minute incubation. The cells were then lysed in buffer containing 0.5% NP-40, 50 mM Tris (pH 7.4), 150 mM NaCl, complete protease inhibitors and PhosphoOne phosphatase inhibitors (Roche), and collected lysates subjected to SDS-PAGE following by western blotting with anti-phospho-Erk1/2, phospho-S6K, phospho-myc (Cell Signaling), and actin (Sigma) antibodies.

[8] = tested on: Myc promoter luciferase reporter in HeLa cells; assay: Myc promoter luciferase reporter assay; type: cell-based; conditions: EGF stimulation, normalized to cell viability
Method: HeLa cells transfected with a reporter construct containing luciferase under the control of the Myc promoter was treated with EGF and the indicated concentrations of SAH-SOS peptides (FIG. 16). The luciferase readout was normalized to cell viability and plotted as percent luciferase expression compared to baseline. […] No EGF treatment served as a negative control for the experiment.
HeLa cells (10^4/well) were plated overnight (96-well format) in high-glucose DMEM media supplemented with 10% FBS, antibiotics and L-Glutamine. After 24 hour incubation, cells were transfected with pBV-Luc/Del-6 plasmid that includes a luciferase reporter under c-myc promoter, using Lipofectamine 2000 (Invitrogen) according to the manufacturer's protocol. Twenty-four hours after transfection, the cells were treated with the indicated amounts of SAH-SOS peptides for 4 hours in serum-free media, and then. EGF (50 ng/ml) was added for an additional 4 hour incubation. CellTiter-Glo and luciferase (Invitrogen) kits were used to quantify cell viability and luciferase expression, respectively. Viability data was used to normalize luciferase expression.

[9] = tested on: mouse embryonic fibroblasts; conditions: 0.5 μM FITC-conjugated peptide, 4 hours
Method: Negative controls include DMSO and an unmodified/unstructured peptide of the BIM BH3 domain. […] Microscopy was performed 4 hours after dosing cells with the corresponding FITC-conjugated peptides.
Briefly, wild-type MEFs were treated with 0.5 μM SAH-SOS peptide or the equivalent amount of control peptides (e.g. BIM BH3, BIM SAHBA) for 4 hours in serum-free DMEM, and then stained with Hoechst dye and CellMask Orange (Invitrogen) for 10 min. The media was aspirated, and cells fixed with 4% paraformaldehyde for 10 min, washed 3× with PBS and imaged using ImageXpress Microscopy (high-throughput epifluorescence microscope, Molecular Devices). The data were analyzed and quantified with MetaXpress software.

Row | Compound | binding to KRAS, in words (KRAS wild type [1]) | disruption of KRAS-SOS1 association (KRAS and SOS1 protein) | inhibition of mant-GTP loading (KRAS wild type [2]) | inhibition of mant-GTP loading (KRAS G12D) | cellular uptake (Panc 10.05 cells) | GTP exchange activity of KRAS (wildtype KRAS) | cell viability [3] | cell viability [4] | cell viability [5] | anti-tumor activity in cancer cell lines [6] | phosphorylation of downstream KRAS targets [7] | myc-driven luciferase expression [8] | cellular uptake [9] | inhibition of nucleotide (mant-GTP) loading of KRAS (KRAS G12D)
1 | CC[C@H](C)[C@H](NC(=O)[C@]1(C)CCCC=CCCC[C@](C)(NC(=O)CNC(=O)[C@H](Cc2ccccc2)NC(=O)[C@H](Cc2ccccc2)NC(=O)[C@H](CCCNC(=N)N)NC(=O)[C@H](CCCNC(=N)N)NC(=O)CCNC(=S)Nc2ccc3c(c2)C(=O)OC32c3ccc(O)cc3Oc3cc(O)ccc32)C(=O)N[C@@H](Cc2ccc(O)cc2)C(=O)N[C@@H](CC(C)C)C(=O)N[C@@H]([C@@H](C)O)C(=O)N1)C(=O)N[C@@H](CC(C)C)C(=O)N[C@@H](CCCCN)C(=O)N[C@H](C(=O)N[C@@H](CCC(=O)O)C(=O)N[C@@H](CCC(=O)O)C(=O)NCC(=O)N[C@@H](CC(N)=O)C(N)=O)[C@@H](C)O [SAH-SOSB2, RRFFGXYLTXILKTEEGN] | does not bind KRAS | displayed no such activity | had no effect | had no effect | dose-dependent cellular uptake was observed |  |  |  |  |  |  |  |  | 
2 | CC[C@H](C)[C@H](NC(=O)CNC(=O)[C@H](Cc1ccccc1)NC(=O)[C@H](Cc1ccccc1)NC(=O)[C@H](CCCNC(=N)N)NC(=O)[C@H](CCCNC(=N)N)NC(=O)CCNC(=S)Nc1ccc2c(c1)C(=O)OC21c2ccc(O)cc2Oc2cc(O)ccc21)C(=O)N[C@@]1(C)CCCC=CCCC[C@@](C)(C(=O)N[C@@H](CC(C)C)C(=O)N[C@@H](CCCCN)C(=O)N[C@H](C(=O)N[C@@H](CCC(=O)O)C(=O)N[C@@H](CCC(=O)O)C(=O)NCC(=O)N[C@@H](CC(N)=O)C(N)=O)[C@@H](C)O)NC(=O)[C@H](CC(N)=O)NC(=O)[C@H]([C@@H](C)O)NC(=O)[C@H](CC(C)C)NC1=O [SAH-SOSC2, RRFFGIXLTNXLKTEEGN] | among the highest affinity | disrupted the association between KRAS and SOS1 protein | dose-responsively inhibited mant-GTP loading | dose-responsively inhibited mant-GTP loading | dose-dependent cellular uptake was observed | reduce the GTP exchange activity of KRAS in vitro in a dose-responsive manner | impairs the viability | impairs the viability | impairs the viability | demonstrated anti-tumor activity | dose-responsively inhibited phosphorylation | specifically inhibited myc-driven luciferase expression | cellular uptake | 
3 | RRFFGIXLTNXLRTEK(G-GMONO)GN (RRFFGI[S5]LTN[S5]LRTEK(G‑GMONO)GN; staple 7-11) [SAH-SOS(G-Gmono), SAH-SOSC2 derivative with glycine-conjugated G-monomer on a lysine side chain] |  |  |  |  |  |  |  |  |  |  |  |  |  | effectively inhibited nucleotide loading
4 | RRFFGIXLTNXLRTEKGN (RRFFGI[S5]LTN[S5]LRTEK(guanine PNA monomer)GN; staple 7-11) [SAH-SOS(Gmono), SAH-SOSC2 derivative with guanine peptide-nucleic acid monomer (Gmono) on a lysine side chain] |  |  |  |  |  |  |  |  |  |  |  |  |  | effectively inhibited nucleotide loading
